Results: paper PMC10254314 (2023)

How the values were obtained:
[1] = test system: poly A–poly U (pApU) (RNA, polymer) A/U; assay: UV thermal melting at 260 nm; settings: Na+ (sodium cacodylate, I = 0.05 M), pH 7, r = [compound]/[polynucleotide] = 0.3, polynucleotide 2 × 10^-5 M, per base
[2] = test system: poly dAdT–poly dAdT (AT-DNA) (DNA, polymer) AT; assay: UV/vis titration, Scatchard (McGhee–von Hippel) fit; settings: Na+ (sodium cacodylate, I = 0.05 M), pH 7.0, n fixed 0.2, per base
[3] = test system: poly dAdT–poly dAdT (AT-DNA) (DNA, polymer) AT; assay: UV thermal melting at 260 nm; settings: Na+ (sodium cacodylate, I = 0.05 M), pH 7, r = [compound]/[polynucleotide] = 0.3, polynucleotide 2 × 10^-5 M, per base

SMILES | ΔTm [1] | logKs [2] | ΔTm [3] [°C]
COc1cc2c(cc1OC)SC(c1ccc(NCc3ccc(Cl)cc3)cc1)=[N+](C)C2 | +1 ± 0.5 °C |  | 
COc1cc2c(cc1OC)SC(c1ccc(NCc3cccc(C)c3)cc1)=[N+](C)C2 | −1.5 ± 0.5 °C |  | 
COc1ccc(Nc2ccc(C3=[N+](C)Cc4cc(Nc5ccc(OC)cc5)ccc4S3)cc2)cc1 | +3.5 ± 0.5 °C | 4.9 | −1.5 ± 0.5
COc1ccc(Nc2ccc(C3=[N+](C)Cc4cccc(Nc5ccc(OC)cc5)c4S3)cc2)cc1 | −1.2 ± 0.5 °C | 4.9 | −2.1 ± 0.5
